US20170182087A1, “MAIN CHAIN POLYAMINES” (priority 2014, published 2017)

Tested on: human renal proximal tubule epithelial cells (RPTEC)
Assay: Cytotoxicity Assay, RPTEC Cells
Assay type: cell-based
Procedure: Cells were plated at 3,000 cells/well (RPTEC) in 96-well plates and were incubated overnight at 37° C. The compounds were added to the wells, and the cells were incubated for 4 days. Alomar Blue was added to one set of plates and incubated for 4 hours. The plates were read when the compound was added (time zero) and at the end of the study. Fluorescence was read using 530 nm (excitation) and 590 nm (emission) according to the manufacturer's instructions.

Question: With “Poly(1,3-bis N-(1,4-dimethybenzene)piperidin-4-yl)propane)” as the substance, how does the Cytotoxicity (Kidney Epithelial IC50) read?
Answer: Its Cytotoxicity (Kidney Epithelial IC50) is 1.5 µg/mL.

Question: How did the Cytotoxicity (Kidney Epithelial IC50) turn out when “Poly(1,3-bis(1,5-dimethybenzene)piperidin-4-yl)propane)” was run?
Answer: Its Cytotoxicity (Kidney Epithelial IC50) is 1.5 µg/mL.

Question: “Poly(1,3-bis(1-pentyl-piperidin-4-yl)propane [4,4′-Trimethylenedipiperidine/Glutaraldehyde (1:1.5) <10K]” was tested. Which Cytotoxicity (Kidney Epithelial IC50) did it give?
Answer: The Cytotoxicity (Kidney Epithelial IC50) was 4 µg/mL.

Question: How did the Cytotoxicity (Kidney Epithelial IC50) turn out when “Poly(1,3-bis(1-pentyl-piperidin-4-yl)propane [4,4′-Trimethylenedipiperidine/Glutaraldehyde (1:1.5) >10K]” was run?
Answer: The Cytotoxicity (Kidney Epithelial IC50) was 5 µg/mL.

Question: “Poly(1,3-bis(1-pentyl-piperidin-4-yl)propane [4,4′-Trimethylenedipiperidine/Glutaraldehyde (1:2.5) <10K]” was tested. Which Cytotoxicity (Kidney Epithelial IC50) did it give?
Answer: Its Cytotoxicity (Kidney Epithelial IC50) is 2 µg/mL.

Question: With “Poly(1,3-bis(1-pentyl-piperidin-4-yl)propane [4,4′-Trimethylenedipiperidine/Glutaraldehyde (1:3.5) <10K]” as the substance, how does the Cytotoxicity (Kidney Epithelial IC50) read?
Answer: Its Cytotoxicity (Kidney Epithelial IC50) is 2 µg/mL.

Question: Which Cytotoxicity (Kidney Epithelial IC50) does the source give for “Poly(1,3-bis(1-pentyl-piperidin-4-yl)propane [4,4′-Trimethylenedipiperidine/Glutaraldehyde <10K]” here?
Answer: The Cytotoxicity (Kidney Epithelial IC50) was 331 µg/mL.

Question: “Poly(1,3-bis(1-pentyl-piperidin-4-yl)propane [4,4′-Trimethylenedipiperidine/Glutaraldehyde >10K]” was tested. Which Cytotoxicity (Kidney Epithelial IC50) did it give?
Answer: Its Cytotoxicity (Kidney Epithelial IC50) is 1.5 µg/mL.

Question: How did the Cytotoxicity (Kidney Epithelial IC50) turn out when “Poly(1,3-bis(1-pentyl-piperidin-4-yl)propane [Poly(4,4′-Trimethylenedipiperidine/Glutaraldehyde (1:1)), <1]” was run?
Answer: Its Cytotoxicity (Kidney Epithelial IC50) is 2 µg/mL.

Question: “Poly(1,3-bis(1-pentyl-piperidin-4-yl)propane [Poly(4,4′-Trimethylenedipiperidine/Glutaraldehyde (1:1)), >1]” was tested. Which Cytotoxicity (Kidney Epithelial IC50) did it give?
Answer: The Cytotoxicity (Kidney Epithelial IC50) was 2 µg/mL.

Question: For “Poly((1,1′-dipentyl)-4,4-dipiperidine) [4,4′-dipiperidine/Glutaraldehyde <10K]”, which Cytotoxicity (Kidney Epithelial IC50) is on record?
Answer: The Cytotoxicity (Kidney Epithelial IC50) was 1.5 µg/mL.

Question: With “Poly((1,1′-dipentyl)-4,4-dipiperidine) [Poly(1:1 Dipiperidine:Glutaraldehyde); <10K molecular weight]” as the substance, how does the Cytotoxicity (Kidney Epithelial IC50) read?
Answer: The Cytotoxicity (Kidney Epithelial IC50) was 2 µg/mL.
